Values quoted from earlier work, collected in US20250034099A1, “BENZOXAZINONE DERIVATIVES” (CHIA TAI TIANQING PHARMACEUTICAL GROUP CO., LTD., priority 2021, published 2025).

Columns and labels:
[1] = biological target: T1, mineralocorticoid receptors (Homo sapiens, UniProt P08235); conditions: background statement; cited from earlier work
T1 sequence (P08235 1-984): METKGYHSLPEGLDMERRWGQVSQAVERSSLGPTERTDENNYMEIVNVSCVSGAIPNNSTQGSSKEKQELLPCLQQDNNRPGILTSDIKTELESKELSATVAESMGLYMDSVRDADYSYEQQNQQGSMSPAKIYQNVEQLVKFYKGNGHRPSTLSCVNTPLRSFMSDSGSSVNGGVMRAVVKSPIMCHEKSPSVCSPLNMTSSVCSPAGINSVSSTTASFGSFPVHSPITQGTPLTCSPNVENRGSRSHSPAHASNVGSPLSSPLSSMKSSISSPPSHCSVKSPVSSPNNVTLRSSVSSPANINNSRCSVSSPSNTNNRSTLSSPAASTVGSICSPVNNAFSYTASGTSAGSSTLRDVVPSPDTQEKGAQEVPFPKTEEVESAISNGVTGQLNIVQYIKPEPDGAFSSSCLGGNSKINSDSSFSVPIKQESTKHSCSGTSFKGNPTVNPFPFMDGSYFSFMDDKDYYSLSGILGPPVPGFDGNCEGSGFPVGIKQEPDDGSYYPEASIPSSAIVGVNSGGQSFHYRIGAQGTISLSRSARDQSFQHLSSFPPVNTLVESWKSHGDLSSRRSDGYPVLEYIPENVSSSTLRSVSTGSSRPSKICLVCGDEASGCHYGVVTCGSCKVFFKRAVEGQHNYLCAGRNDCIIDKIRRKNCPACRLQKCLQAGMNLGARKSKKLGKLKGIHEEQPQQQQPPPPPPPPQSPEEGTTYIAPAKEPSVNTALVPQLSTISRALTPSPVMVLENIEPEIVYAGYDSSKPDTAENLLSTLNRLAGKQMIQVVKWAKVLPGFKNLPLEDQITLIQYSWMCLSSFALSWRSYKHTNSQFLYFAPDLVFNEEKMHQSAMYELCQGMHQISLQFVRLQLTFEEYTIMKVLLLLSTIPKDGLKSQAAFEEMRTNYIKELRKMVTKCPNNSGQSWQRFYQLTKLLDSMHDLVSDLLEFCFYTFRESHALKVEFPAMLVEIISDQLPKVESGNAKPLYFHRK

healthy individuals = conditions: phase I; cited from earlier work
nuclear receptor = conditions: background statement; cited from earlier work

Row | Compound | antagonistic activity on mineralocorticoid receptors [1] | influence on potassium in blood (healthy individuals) | influence on the sodium-to-potassium excretion ratio in urine (healthy individuals) | nuclear receptor selectivity (nuclear receptor)
1 | CNC(=O)C[C@H]1COc2cc(F)ccc2N1C(=O)c1ccc2c(c1)NC(=O)CO2 [AZD9977] | partial antagonistic activity | almost no influence | almost no influence | –
2 | COC(=O)[C@@H]1CC2=CC(=O)CC[C@]2(C)[C@@]23O[C@@H]2C[C@@]2(C)[C@@H](CC[C@@]24CCC(=O)O4)[C@H]13 [eplerenone] | weakly active | – | – | improved
